What was measured:
Test in all cases: PRESTO-Tango GPCR screen
Format in all cases: cell-based
Conditions in all cases: 100 µM
[1] = target: T1, ADRA2A (Homo sapiens, UniProt P08913)
T1 construct: purchased PRESTO-Tango GPCR kit (Roth lab / Addgene)
In short: (§1)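 Cells were HTLA, a HEK293 line carrying β-arrestin-TEV and tTA-luciferase, transfected with each receptor-Tango plasmid, then exposed to compound at 100 μM final for 20 h.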

[2] = target: T2, ADRB3 (Homo sapiens, UniProt P13945)
T2 construct: purchased PRESTO-Tango GPCR kit (Roth lab / Addgene)
In short: as §1

[3] = target: T3, AVPR2 (Homo sapiens, UniProt P30518)
T3 construct: purchased PRESTO-Tango GPCR kit (Roth lab / Addgene)
In short: as §1

[4] = target: T4, C5A (Homo sapiens, UniProt P21730)
T4 construct: purchased PRESTO-Tango GPCR kit (Roth lab / Addgene)
In short: as §1

[5] = target: T5, CCR10 (Homo sapiens, UniProt P46092)
T5 construct: purchased PRESTO-Tango GPCR kit (Roth lab / Addgene)
In short: as §1

[6] = target: T6, CCRL2 (Homo sapiens, UniProt O00421)
T6 construct: purchased PRESTO-Tango GPCR kit (Roth lab / Addgene)
In short: as §1

[7] = target: T7, FPR2 (Homo sapiens, UniProt P25090)
T7 construct: purchased PRESTO-Tango GPCR kit (Roth lab / Addgene)
In short: as §1

[8] = target: T8, GHSR (Homo sapiens, UniProt Q92847)
T8 construct: purchased PRESTO-Tango GPCR kit (Roth lab / Addgene)
In short: as §1

[9] = target: T9, GPR1 (Homo sapiens, UniProt P46091)
T9 construct: purchased PRESTO-Tango GPCR kit (Roth lab / Addgene)
In short: as §1

[10] = target: T10, GPR116 (Homo sapiens, UniProt Q8IZF2)
T10 construct: purchased PRESTO-Tango GPCR kit (Roth lab / Addgene)
In short: as §1

[11] = target: T11, GPR119 (Homo sapiens, UniProt Q8TDV5)
T11 construct: purchased PRESTO-Tango GPCR kit (Roth lab / Addgene)
In short: as §1

[12] = target: T12, GPR149 (Homo sapiens, UniProt Q86SP6)
T12 construct: purchased PRESTO-Tango GPCR kit (Roth lab / Addgene)
In short: as §1

[13] = target: T13, GPR22 (Homo sapiens, UniProt Q99680)
T13 construct: purchased PRESTO-Tango GPCR kit (Roth lab / Addgene)
In short: as §1

[14] = target: T14, GPR37L1 (Homo sapiens, UniProt O60883)
T14 construct: purchased PRESTO-Tango GPCR kit (Roth lab / Addgene)
In short: as §1

[15] = target: T15, GPR39 (Homo sapiens, UniProt O43194)
T15 construct: purchased PRESTO-Tango GPCR kit (Roth lab / Addgene)
In short: as §1

[16] = target: T16, GPR62 (Homo sapiens, UniProt Q9BZJ7)
T16 construct: purchased PRESTO-Tango GPCR kit (Roth lab / Addgene)
In short: as §1

[17] = target: T17, GPR75 (Homo sapiens, UniProt O95800)
T17 construct: purchased PRESTO-Tango GPCR kit (Roth lab / Addgene)
In short: as §1

[18] = target: T18, GPR82 (Homo sapiens, UniProt Q96P67)
T18 construct: purchased PRESTO-Tango GPCR kit (Roth lab / Addgene)
In short: as §1

[19] = target: T19, GPRC5B (Homo sapiens, UniProt Q9NZH0)
T19 construct: purchased PRESTO-Tango GPCR kit (Roth lab / Addgene)
In short: as §1

[20] = target: T20, GRM6 (Homo sapiens, UniProt O15303)
T20 construct: purchased PRESTO-Tango GPCR kit (Roth lab / Addgene)
In short: as §1

[21] = target: T21, HCTR2 (Homo sapiens, UniProt O43614)
T21 construct: purchased PRESTO-Tango GPCR kit (Roth lab / Addgene)
In short: as §1

[22] = target: T22, HTR4 (Homo sapiens, UniProt Q13639)
T22 construct: purchased PRESTO-Tango GPCR kit (Roth lab / Addgene)
In short: as §1

[23] = target: T23, MC3R (Homo sapiens, UniProt P41968)
T23 construct: purchased PRESTO-Tango GPCR kit (Roth lab / Addgene)
In short: as §1

[24] = target: T24, MRGPRX2 (Homo sapiens, UniProt Q96LB1)
T24 construct: purchased PRESTO-Tango GPCR kit (Roth lab / Addgene)
In short: as §1

[25] = target: T25, MTNR1B (Homo sapiens, UniProt P49286)
T25 construct: purchased PRESTO-Tango GPCR kit (Roth lab / Addgene)
In short: as §1

[26] = target: T26, OPRD1 (Homo sapiens, UniProt P41143)
T26 construct: purchased PRESTO-Tango GPCR kit (Roth lab / Addgene)
In short: as §1

[27] = target: T27, P2RY11 (Homo sapiens, UniProt Q96G91)
T27 construct: purchased PRESTO-Tango GPCR kit (Roth lab / Addgene)
In short: as §1

[28] = target: T28, P2RY14 (Homo sapiens, UniProt Q15391)
T28 construct: purchased PRESTO-Tango GPCR kit (Roth lab / Addgene)
In short: as §1

[29] = target: T29, P2RY2 (Homo sapiens, UniProt P41231)
T29 construct: purchased PRESTO-Tango GPCR kit (Roth lab / Addgene)
In short: as §1

[30] = target: T30, P2RY6 (Homo sapiens, UniProt Q15077)
T30 construct: purchased PRESTO-Tango GPCR kit (Roth lab / Addgene)
In short: as §1

[31] = target: T31, PTGER4 (Homo sapiens, UniProt P35408)
T31 construct: purchased PRESTO-Tango GPCR kit (Roth lab / Addgene)
In short: as §1

[32] = target: T32, PTGIR (Homo sapiens, UniProt P43119)
T32 construct: purchased PRESTO-Tango GPCR kit (Roth lab / Addgene)
In short: as §1

[33] = target: T33, S1PR2 (Homo sapiens, UniProt O95136)
T33 construct: purchased PRESTO-Tango GPCR kit (Roth lab / Addgene)
In short: as §1

[34] = target: T34, SUCNR1 (Homo sapiens, UniProt Q9BXA5)
T34 construct: purchased PRESTO-Tango GPCR kit (Roth lab / Addgene)
In short: as §1

[35] = target: T35, TACR3 (Homo sapiens, UniProt P29371)
T35 construct: purchased PRESTO-Tango GPCR kit (Roth lab / Addgene)
In short: as §1

T17 sequence (O95800 whole entry): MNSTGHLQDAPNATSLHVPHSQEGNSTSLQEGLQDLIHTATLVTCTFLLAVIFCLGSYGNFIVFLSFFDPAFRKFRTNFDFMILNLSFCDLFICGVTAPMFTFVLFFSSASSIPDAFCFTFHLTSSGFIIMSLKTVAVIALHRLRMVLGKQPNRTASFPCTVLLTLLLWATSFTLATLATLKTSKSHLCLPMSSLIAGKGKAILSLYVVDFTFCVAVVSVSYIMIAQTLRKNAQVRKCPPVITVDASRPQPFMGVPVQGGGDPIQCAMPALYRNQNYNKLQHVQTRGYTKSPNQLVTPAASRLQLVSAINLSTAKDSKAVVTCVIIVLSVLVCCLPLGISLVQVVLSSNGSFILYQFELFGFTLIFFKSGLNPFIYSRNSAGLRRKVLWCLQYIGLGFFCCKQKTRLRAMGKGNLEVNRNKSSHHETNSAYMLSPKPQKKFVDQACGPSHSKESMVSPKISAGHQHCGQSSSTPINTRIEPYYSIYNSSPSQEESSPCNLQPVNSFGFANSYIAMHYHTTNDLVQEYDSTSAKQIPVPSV
T4 sequence (P21730 whole entry): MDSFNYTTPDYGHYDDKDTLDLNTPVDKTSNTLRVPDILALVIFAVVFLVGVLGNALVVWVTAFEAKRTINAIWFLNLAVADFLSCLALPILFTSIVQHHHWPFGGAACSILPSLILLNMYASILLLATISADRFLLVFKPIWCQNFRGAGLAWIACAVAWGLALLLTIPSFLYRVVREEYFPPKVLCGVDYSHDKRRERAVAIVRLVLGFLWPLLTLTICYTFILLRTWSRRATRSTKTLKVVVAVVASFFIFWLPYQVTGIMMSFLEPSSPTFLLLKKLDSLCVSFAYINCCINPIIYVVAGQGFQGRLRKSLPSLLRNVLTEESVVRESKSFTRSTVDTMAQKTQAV
T23 sequence (P41968 whole entry): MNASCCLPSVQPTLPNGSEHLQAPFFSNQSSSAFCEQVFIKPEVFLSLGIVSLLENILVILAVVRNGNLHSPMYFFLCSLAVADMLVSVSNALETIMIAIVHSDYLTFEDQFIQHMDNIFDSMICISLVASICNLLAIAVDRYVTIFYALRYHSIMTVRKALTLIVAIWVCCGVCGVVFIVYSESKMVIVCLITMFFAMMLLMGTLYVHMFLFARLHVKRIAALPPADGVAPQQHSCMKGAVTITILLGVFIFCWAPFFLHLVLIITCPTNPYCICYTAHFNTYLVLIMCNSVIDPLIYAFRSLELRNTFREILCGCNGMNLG
T19 sequence (Q9NZH0 29-403): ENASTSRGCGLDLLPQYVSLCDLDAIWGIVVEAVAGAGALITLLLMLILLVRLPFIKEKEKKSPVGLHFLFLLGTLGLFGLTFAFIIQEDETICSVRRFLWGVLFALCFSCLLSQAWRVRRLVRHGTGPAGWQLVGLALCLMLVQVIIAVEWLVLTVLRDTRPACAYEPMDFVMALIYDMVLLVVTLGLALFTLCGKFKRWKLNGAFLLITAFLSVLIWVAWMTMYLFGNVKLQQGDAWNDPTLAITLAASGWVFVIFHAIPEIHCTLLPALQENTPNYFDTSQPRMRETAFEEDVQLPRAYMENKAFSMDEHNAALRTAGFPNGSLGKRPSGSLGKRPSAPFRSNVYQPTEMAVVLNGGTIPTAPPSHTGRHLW
T9 sequence (P46091 whole entry): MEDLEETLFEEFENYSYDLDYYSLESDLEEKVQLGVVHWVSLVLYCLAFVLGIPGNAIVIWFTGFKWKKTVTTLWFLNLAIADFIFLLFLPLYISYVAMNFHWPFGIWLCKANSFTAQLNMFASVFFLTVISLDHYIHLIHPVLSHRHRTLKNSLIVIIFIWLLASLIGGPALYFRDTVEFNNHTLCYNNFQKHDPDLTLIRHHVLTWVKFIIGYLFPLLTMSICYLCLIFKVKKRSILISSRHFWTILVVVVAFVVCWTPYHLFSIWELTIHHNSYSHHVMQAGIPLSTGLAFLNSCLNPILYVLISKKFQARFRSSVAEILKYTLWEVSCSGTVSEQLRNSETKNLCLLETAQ
T14 sequence (O60883 26-481): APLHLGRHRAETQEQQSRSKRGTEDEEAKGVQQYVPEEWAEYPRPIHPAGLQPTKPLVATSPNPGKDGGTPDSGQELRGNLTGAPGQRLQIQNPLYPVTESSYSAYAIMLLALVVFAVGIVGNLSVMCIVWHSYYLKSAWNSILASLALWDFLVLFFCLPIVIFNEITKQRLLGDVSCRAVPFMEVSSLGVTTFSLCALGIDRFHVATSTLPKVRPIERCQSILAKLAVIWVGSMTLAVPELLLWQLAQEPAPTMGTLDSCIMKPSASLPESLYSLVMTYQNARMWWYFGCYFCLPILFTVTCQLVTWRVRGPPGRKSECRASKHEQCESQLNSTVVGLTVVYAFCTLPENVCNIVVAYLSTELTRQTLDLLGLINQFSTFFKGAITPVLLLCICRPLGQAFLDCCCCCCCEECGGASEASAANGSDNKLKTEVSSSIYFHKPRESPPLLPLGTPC
T25 sequence (P49286 whole entry): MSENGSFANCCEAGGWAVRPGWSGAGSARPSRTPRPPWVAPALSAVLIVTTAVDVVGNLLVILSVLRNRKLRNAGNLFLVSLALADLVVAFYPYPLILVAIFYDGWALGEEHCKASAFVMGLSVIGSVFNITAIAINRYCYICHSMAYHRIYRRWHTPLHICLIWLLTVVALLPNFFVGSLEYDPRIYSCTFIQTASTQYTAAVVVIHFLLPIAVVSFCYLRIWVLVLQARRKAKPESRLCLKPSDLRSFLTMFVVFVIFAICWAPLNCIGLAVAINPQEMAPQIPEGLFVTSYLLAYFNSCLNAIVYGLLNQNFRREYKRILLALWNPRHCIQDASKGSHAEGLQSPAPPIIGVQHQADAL
T21 sequence (O43614 whole entry): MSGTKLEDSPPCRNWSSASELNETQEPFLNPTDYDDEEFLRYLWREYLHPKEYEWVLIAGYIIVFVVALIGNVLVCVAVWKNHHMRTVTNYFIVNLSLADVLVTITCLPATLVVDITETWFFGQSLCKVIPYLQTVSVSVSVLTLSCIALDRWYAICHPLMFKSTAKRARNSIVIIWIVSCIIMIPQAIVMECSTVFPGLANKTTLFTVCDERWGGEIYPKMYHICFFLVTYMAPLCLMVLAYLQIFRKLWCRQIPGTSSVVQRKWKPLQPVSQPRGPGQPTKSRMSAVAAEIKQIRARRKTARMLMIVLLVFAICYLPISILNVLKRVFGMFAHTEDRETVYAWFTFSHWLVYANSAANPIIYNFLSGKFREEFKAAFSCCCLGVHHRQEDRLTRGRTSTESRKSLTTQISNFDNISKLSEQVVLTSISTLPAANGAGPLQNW
T2 sequence (P13945 whole entry): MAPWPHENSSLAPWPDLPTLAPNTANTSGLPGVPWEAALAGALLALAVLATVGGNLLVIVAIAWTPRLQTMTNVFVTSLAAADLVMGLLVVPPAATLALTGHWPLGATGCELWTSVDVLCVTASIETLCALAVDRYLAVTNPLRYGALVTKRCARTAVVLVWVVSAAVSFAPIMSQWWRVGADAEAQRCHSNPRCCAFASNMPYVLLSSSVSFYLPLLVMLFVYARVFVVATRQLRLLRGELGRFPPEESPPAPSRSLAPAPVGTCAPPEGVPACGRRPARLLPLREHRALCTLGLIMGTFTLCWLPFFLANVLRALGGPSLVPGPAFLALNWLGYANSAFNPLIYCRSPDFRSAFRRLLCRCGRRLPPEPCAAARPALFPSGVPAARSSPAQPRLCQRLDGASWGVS
T7 sequence (P25090 whole entry): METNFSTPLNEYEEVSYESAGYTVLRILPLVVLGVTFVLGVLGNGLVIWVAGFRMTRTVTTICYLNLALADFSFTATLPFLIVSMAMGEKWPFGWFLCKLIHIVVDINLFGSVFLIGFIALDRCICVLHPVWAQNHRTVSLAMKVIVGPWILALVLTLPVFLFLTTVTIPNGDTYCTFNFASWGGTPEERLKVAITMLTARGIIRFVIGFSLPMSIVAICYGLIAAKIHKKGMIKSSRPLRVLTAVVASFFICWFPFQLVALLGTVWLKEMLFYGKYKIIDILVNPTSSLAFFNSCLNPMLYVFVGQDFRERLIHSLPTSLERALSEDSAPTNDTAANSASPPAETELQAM
T13 sequence (Q99680 whole entry): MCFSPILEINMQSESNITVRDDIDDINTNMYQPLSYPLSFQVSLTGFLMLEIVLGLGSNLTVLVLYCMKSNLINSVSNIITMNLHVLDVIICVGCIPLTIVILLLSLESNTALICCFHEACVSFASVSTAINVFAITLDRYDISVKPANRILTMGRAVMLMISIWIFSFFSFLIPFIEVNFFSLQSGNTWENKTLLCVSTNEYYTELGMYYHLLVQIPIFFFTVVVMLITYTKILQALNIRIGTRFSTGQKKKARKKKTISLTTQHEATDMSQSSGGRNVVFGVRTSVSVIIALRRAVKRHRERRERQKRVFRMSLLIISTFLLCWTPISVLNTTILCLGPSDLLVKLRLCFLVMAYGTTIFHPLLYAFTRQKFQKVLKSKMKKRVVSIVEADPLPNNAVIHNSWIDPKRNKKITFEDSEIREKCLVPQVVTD
T3 sequence (P30518 whole entry): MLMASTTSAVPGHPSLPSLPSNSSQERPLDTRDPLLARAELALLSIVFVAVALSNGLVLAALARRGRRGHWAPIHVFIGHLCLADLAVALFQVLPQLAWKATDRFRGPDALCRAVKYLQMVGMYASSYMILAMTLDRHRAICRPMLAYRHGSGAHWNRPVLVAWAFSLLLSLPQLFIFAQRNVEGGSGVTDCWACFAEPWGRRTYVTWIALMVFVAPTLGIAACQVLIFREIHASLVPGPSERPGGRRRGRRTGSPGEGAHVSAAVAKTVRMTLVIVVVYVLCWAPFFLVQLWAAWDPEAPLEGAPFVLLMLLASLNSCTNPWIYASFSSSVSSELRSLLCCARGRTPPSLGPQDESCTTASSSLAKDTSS

| SMILES | GPCR activation (heatmap value) [1] | GPCR activation (heatmap value) [2] | GPCR activation (heatmap value) [3] | GPCR activation (heatmap value) [4] | GPCR activation (heatmap value) [5] | GPCR activation (heatmap value) [6] | GPCR activation (heatmap value) [7] | GPCR activation (heatmap value) [8] | GPCR activation (heatmap value) [9] | GPCR activation (heatmap value) [10] | GPCR activation (heatmap value) [11] | GPCR activation (heatmap value) [12] | GPCR activation (heatmap value) [13] | GPCR activation (heatmap value) [14] | GPCR activation (heatmap value) [15] | GPCR activation (heatmap value) [16] | GPCR activation (heatmap value) [17] | GPCR activation (heatmap value) [18] | GPCR activation (heatmap value) [19] | GPCR activation (heatmap value) [20] | other results |
| --- | --- | --- | --- | --- | --- | --- | --- | --- | --- | --- | --- | --- | --- | --- | --- | --- | --- | --- | --- | --- | --- |
| CC(C)Cc1ncc(CCCCNC(=N)N)[nH]c1=O [3-Homo] | -0.8336 | -1.912 | 0.2692 | 0.3516 | 0.7826 | 0.009703 | 0.05882 | 0.75 | 0.03802 | -0.4317 | -1.3809 | 0.01685 | -1.099 | 0.03037 | 0.5643 | 0.1938 | 0.5978 | -0.5831 | 0.238 | -0.3175 | GPCR activation (heatmap value) [21]: -1.63; GPCR activation (heatmap value) [22]: -0.1279; GPCR activation (heatmap value) [23]: -0.2762; GPCR activation (heatmap value) [24]: -0.6668; GPCR activation (heatmap value) [25]: 0.08839; GPCR activation (heatmap value) [26]: -0.6579; GPCR activation (heatmap value) [27]: 0.1373; GPCR activation (heatmap value) [28]: 0.07991; GPCR activation (heatmap value) [29]: -0.0487; GPCR activation (heatmap value) [30]: -0.2248; GPCR activation (heatmap value) [31]: 0.407; GPCR activation (heatmap value) [32]: -0.205; GPCR activation (heatmap value) [33]: -0.09813; GPCR activation (heatmap value) [34]: -0.1091; GPCR activation (heatmap value) [35]: -0.1118 |
| CC(C)Cc1ncc(CCCNC(=N)N)[nH]c1=O [compound 3] | 0.08001 | 0.7966 | -1.811 | 0.1076 | 0.9946 | 0.3717 | 0.522 | -0.1187 | -0.7172 | -0.4037 | 0.03995 | 0.9394 | -1.5748 | -0.6695 | 0.8238 | 1.991 | -1.251 | 0.0221 | 0.6932 | 0.6597 | GPCR activation (heatmap value) [21]: -0.2618; GPCR activation (heatmap value) [22]: -1.236; GPCR activation (heatmap value) [23]: 0.4161; GPCR activation (heatmap value) [24]: 0.1651; GPCR activation (heatmap value) [25]: -0.5682; GPCR activation (heatmap value) [26]: 1.451; GPCR activation (heatmap value) [27]: -0.4085; GPCR activation (heatmap value) [28]: 0.6085; GPCR activation (heatmap value) [29]: 0.0313; GPCR activation (heatmap value) [30]: 0.4506; GPCR activation (heatmap value) [31]: 0.5017; GPCR activation (heatmap value) [32]: 0.2177; GPCR activation (heatmap value) [33]: 0.5246; GPCR activation (heatmap value) [34]: 0.1336; GPCR activation (heatmap value) [35]: -0.7714 |

From PMC11480411, “Mucosal sugars delineate pyrazine vs pyrazinone autoinducer signaling in Klebsiella oxytoca” (Nature Communications, 2024)
